# Laboratory results published in US7498353B2, “Heterocyclic anti-viral compounds comprising metabolizable moieties and their uses” (priority 2005, dated 2009).
# Read-outs that look alike come from different tables or passages of the source.
# How the values were obtained:
# [1] = tested on: HCV replicon in 5-2 Luc replicon-comprising cells; test: HCV replicon assay, luciferase readout (HEPC_REPLICON-LUC); assay type: cell-based; details: Hepatitis C virus, read-out: HEPC_REPLICON-LUC Result Value (IC50)
# Excerpt: In one embodiment, the inhibitory activity of the metabolically active agent of the prodrug can be confirmed in a replicon assay that assesses the ability of a test compound to block or inhibit HCV replication in replicon cells. One example of a suitable replicon assay is the liver cell-line Huh 7-based replicon assay described in Lohmann et al., 1999, Science 285:110-113. A specific example of this replicon assay which utilizes luciferase translation is provided in the Examples Section. In one embodiment of this assay, the amount of test prodrug that yields a 50% reduction in translation as compared to a control cell (IC50) may be determined.
# The inhibitory activity of certain prodrugs of the invention, which may inhibit HCV translation or replication prior to metablism and/or are metabolized into active agents, was confirmed using an HCV replicon assay. The HCV replicon can include such features as the HCV 5′ untranslated region including the HCV IRES, the HCV 3′ untranslated region, selected HCV genes encoding HCV polypeptides, selectable markers, and a reporter gene such as luciferase, GFP, etc. In the assay, actively dividing 5-2 Luc replicon-comprising cells (obtained from Ralf Bartenschlager; see Lohmann et al., 1999, Science 285:110-113) were seeded at a density of between about 5,000 and 7,500 cells/well onto 96 well plates (about 90 μl of cells per well) and incubated at 37° C. and 5% CO2 for 24 hours. Then, the test prodrug (in a volume of about 10 μl) was added to the wells at various concentrations and the cells were incubated for an additional 24-48 hours before luciferase assay. The media was aspirated from each well and Bright-Glo (Promega, Madison, Wis.) luciferase assay reagents were added to each well according to the manufacturer's instructions. Briefly, the Bright-Glo reagent was diluted 1:1 with PBS and 100 μl of diluted reagent was added to each well. After 5 min of incubation at room temperature, luciferin emission was quantified with a luminometer. In this assay, the amount of test prodrug that yielded a 50% reduction in luciferase emission (IC50) was determined. This IC50 value may represent the antiviral activity of the prodrug itself, the activity of prodrug transformed into its active metabolized form, or a combination of the two.
# [2] = Pharmacokinetic studies in portal/jugular vein cannulated rats after oral administration; assay type: in vivo, male Spraque-Dawley rats; details: for AUC: male, Sprague-Dawley, rat, 5 mg/kg oral dose of prodrug
# Description: Pharamcokinetic studies were conducted in rats containing surgically implanted cannula in the portal and jugular veins. Blood samples were taken simultaneously from both cannula at various times after oral administration of the compounds. In the portal vein, the prodrugs are detected and, in some cases, the active compound, A-B—C—NHCOCHX2, has also been detected. The presence of active compound in the portal vein samples has been attributed to metabolism of the prodrug in transit through the gut wall. […] In the jugular samples, many, but not all, of the prodrugs have been detected in systemic circulation, depending on the hepatic extraction ratio of the prodrug.
# Compounds were dissolved in a mixture of TPGS:PEG:PG (35%:60%:5%) and diluted with saline for oral administration. Typically, 6.5 mg of compound was dissolved in 1 ml of the organic mixture and added to 5.5 ml of saline. Animals were dosed with 5 ml/kg of this mixture to give a typical dose of 5 mg/kg. All animal studies were conducted in male Spraque-Dawley rats and the animals were fasted overnight prior to dose administration. Surgeries (to implant blood sampling cannula) were conducted at least two days prior to the study. Blood samples (100 μl) were collected using sodium heparin as anticoagulant and added to 300 μl of a mixture of acetate buffer (100 mM, pH=6.5):acetonitrile:ethanol:DMSO (2:1:1:2 v/v). Samples were centrifuged and the supernatant was analyzed by LC/MS/MS using the procedures outlined above. Standards were prepared similarly using fresh rat blood from naive animals.
# No. 66 and Cpd. No. 64 (Table 3). […] Because the portal blood flows directly to the liver, the intact active parent compound may exert an anti-viral effect in the liver.
# [3] = tested on: HCV NS5A protein in 9-13 replicon cells; test: Quantitative Western blot replicon assay (HEPC_REPLICON-ICWESTERN); assay type: cell-based, Hepatitis C virus (HCV); details: Hepatitis C virus, read-out: HEPC_REPLICON-ICWESTERN Result Value (IC50)
# Description: Alternatively, the inhibitory activity of the metabolically active agents of the prodrugs can be confirmed using a quantitative Western immunoblot assay utilizing antibodies specific for HCV non-structural proteins, such as NS3, NS4A NS5A and NS5B. In one embodiment of this assay, replicon cells are treated with varying concentrations of test prodrug to determine the concentration of the metabolically active agent of the test prodrug that yields a 50% reduction in the amount of a non-structural protein produced as compared to a control sample (IC50). A single non-structural protein may be quantified or multiple non-structural proteins may be quantified. Antibodies suitable for carrying out such immunoblot assays are available commercially (e.g., from BIODESIGN International, Saco, Me.).
# Certain prodrugs of the invention, which may inhibit HCV translation or replication prior to metablism and/or are metabolized into active agents, were also tested for their ability to inhibit HCV replication using a quantitative Western blot analysis with antibodies specific for the HCV NS5A or other non-structural proteins. Actively dividing 9-13 replicon cells were seeded into 6-well plates at a density of 1×10^5 cells/well in a volume of 2 ml/well and incubated at 37° C. and 5% CO2 for 24 hours. Various concentrations of test prodrugs (in a volume of 10 ul) were added to the wells and the cells incubated for another 48 hours. Protein samples were prepared from the cultured cells, resolved on a SDS-PAGE gel and transferred to a nitrocellulose membrane. The membrane was blocked with 5% non-fat milk in PBS for 1 hour at room temperature. Primary antibody (anti NS5A antibody; BIODESIGN International, Saco, Me.) incubation was performed for 1 hour at room temperature, after which the membrane was washed 3 times (for 15 min per time) with PBST (PBS plus 0.1% Tween 20). Horseradish peroxidase conjugated secondary antibody incubation was performed for 1 hour at room temperature and the membrane was washed 3 times (for 15 min per time) with PBST. The membrane was then soaked in substrate solution (Pierce) and exposed to a film or quantified using an imager. In this assay, the amount of test prodrug that is believed to be transformed into an active agent under the given conditions that yielded a 50% reduction in the amount of NS5A protein translated as compared to a control sample (IC50) was determined.
# [4] = 5-2 Luc replicon cells, 50% reduction in luciferase emission
# [5] = 9-13 replicon cells, 50% reduction in NS5A protein
SMILES,"IC50 [1, 4] [nM]","IC50 [3, 5] [nM]",other results
"CCOP(=O)(CCN(C(=O)C(Cl)Cl)c1cccc(-c2cc(-c3c(Cl)cccc3Cl)no2)c1)OCC [Cpd. No. 1, Diethyl 2-(2,2-Dichloro-N-(3-(3-(2,6-dichlorophenyl)isoxazol-5-yl)phenyl)acetamido)ethylphosphonate]",,,IC50 [1]: > 20000 nM; AUC ([2]; in vivo): 176 ng·h/mL; IC50 [3]: 1000 to 20000 nM
"COCN(C(=O)C(Cl)Cl)c1cccc(-c2cc(-c3c(Cl)cccc3Cl)no2)c1 [Cpd. No. 6, 2,2-Dichloro-N-(3-(3-(2,6-dichlorophenyl)isoxazol-5-yl)phenyl)-N-(methoxymethyl)acetamide]",< 1000,< 1000,AUC ([2]; portal vein blood): 98.3 ng·h/mL
"N[C@H](C(=O)NCCN(C(=O)C(Cl)Cl)c1cccc(-c2cc(-c3c(Cl)cccc3Cl)no2)c1)c1ccccc1 [Cpd. No. 18, (S)-N-(2-(2-Amino-2-phenylacetamido)ethyl)-2,2-dichloro-N-(3-(3-(2,6-dichlorophenyl)isoxazol-5-yl)phenyl)acetamide]",,> 20000,AUC ([2]; portal vein blood): 627 ng·h/mL
"CC(C)C(NC(=O)CNC(=O)OC(C)(C)C)C(=O)CCN(C(=O)C(Cl)Cl)c1ccnc(-c2cc(-c3c(Cl)cccc3Cl)no2)c1 (stereo not drawn) [Cpd. No. 49, tert-Butyl 2-(6-(2,2-Dichloro-N-(2-(3-(2,6-dichlorophenyl)isoxazol-5-yl)pyridin-4-yl)acetamido)-2-methyl-4-oxohexan-3-ylamino)-2-oxoethylcarbamate]",< 1000,< 1000,
"CC(C)C(NC(=O)CN)C(=O)CCN(C(=O)C(Cl)Cl)c1ccnc(-c2cc(-c3c(Cl)cccc3Cl)no2)c1 (stereo not drawn) [Cpd. No. 50, N-(4-(2-Aminoacetamido)-5-methyl-3-oxohexyl)-2,2-dichloro-N-(2-(3-(2,6-dichlorophenyl)isoxazol-5-yl)pyridin-4-yl)acetamide]",< 1000,< 1000,
"CCC(C)C(NC(=O)OC(C)(C)C)C(=O)NC(C(=O)CCN(C(=O)C(Cl)Cl)c1ccnc(-c2cc(-c3c(Cl)cccc3Cl)no2)c1)C(C)C (stereo not drawn) [Cpd. No. 51, tert-Butyl 1-(6-(2,2-Dichloro-N-(2-(3-(2,6-dichlorophenyl)isoxazol-5-yl)pyridin-4-yl)acetamido)-2-methyl-4-oxohexan-3-ylamino)-3-methyl-1-oxopentan-2-ylcarbamate]",< 1000,< 1000,
"CCC(C)C(N)C(=O)NC(C(=O)CCN(C(=O)C(Cl)Cl)c1ccnc(-c2cc(-c3c(Cl)cccc3Cl)no2)c1)C(C)C (stereo not drawn) [Cpd. No. 52, 2-Amino-N-(6-(2,2-dichloro-N-(2-(3-(2,6-dichlorophenyl)isoxazol-5-yl)pyridin-4-yl)acetamido)-2-methyl-4-oxohexan-3-yl)-3-methylpentanamide]",< 1000,< 1000,
"CC(C)C(NC(=O)C1CC(O)CN1C(=O)OC(C)(C)C)C(=O)CCN(C(=O)C(Cl)Cl)c1ccnc(-c2cc(-c3c(Cl)cccc3Cl)no2)c1 (stereo not drawn) [Cpd. No. 53, tert-Butyl 2-(6-(2,2-Dichloro-N-(2-(3-(2,6-dichlorophenyl)isoxazol-5-yl)pyridin-4-yl)acetamido)-2-methyl-4-oxohexan-3-ylcarbamoyl)-4-hydroxypyrrolidine-1-carboxylate]",< 1000,< 1000,
"CC(C)C(NC(=O)C(CCC(=O)OC(C)(C)C)NC(=O)OC(C)(C)C)C(=O)CCN(C(=O)C(Cl)Cl)c1ccnc(-c2cc(-c3c(Cl)cccc3Cl)no2)c1 (stereo not drawn) [Cpd. No. 55, tert-Butyl 4-(tert-Butoxycarbonylamino)-5-(6-(2,2-dichloro-N-(2-(3-(2,6-dichlorophenyl)isoxazol-5-yl)pyridin-4-yl)acetamido)-2-methyl-4-oxohexan-3-ylamino)-5-oxopentanoate]",< 1000,1000 to 20000,
"CC(C)OC(=O)OCN(C(=O)C(Cl)Cl)c1ccnc(-c2cc(-c3c(Cl)cccc3Cl)no2)c1 [Cpd. No. 57, (2,2-Dichloro-N-(2-(3-(2,6-dichlorophenyl)isoxazol-5-yl)pyridin-4-yl)acetamido)methyl Isopropyl Carbonate]",1000 to 20000,1000 to 20000,
"CC(C)[C@@H](NC(=O)OCN(C(=O)C(Cl)Cl)c1ccnc(-c2cc(-c3c(Cl)cccc3Cl)no2)c1)C(=O)OC(C)(C)C [Cpd. No. 58, (R)-tert-Butyl 2-(((2,2-Dichloro-N-(2-(3-(2,6-dichlorophenyl)isoxazol-5-yl)pyridin-4-yl)acetamido)methoxy)carbonylamino)-3-methylbutanoate]",> 20000,1000 to 20000,
"CCC(C)C(N)C(=O)CCN(C(=O)C(Cl)Cl)c1ccnc(-c2cc(-c3c(Cl)cccc3Cl)no2)c1 (stereo not drawn) [Cpd. No. 59, N-(4-Amino-5-methyl-3-oxoheptyl)-2,2-dichloro-N-(2-(3-(2,6-dichlorophenyl)isoxazol-5-yl)pyridin-4-yl)acetamide]",< 1000,< 1000,
"NCC(=O)CCN(C(=O)C(Cl)Cl)c1ccnc(-c2cc(-c3c(Cl)cccc3Cl)no2)c1 [Cpd. No. 60, N-(4-Amino-3-oxobutyl)-2,2-dichloro-N-(2-(3-(2,6-dichlorophenyl)isoxazol-5-yl)pyridin-4-yl)acetamide]",< 1000,1000 to 20000,
O=C(Nc1ccnc(-c2cc(-c3c(Cl)cccc3Cl)no2)c1)C(Cl)Cl [Cpd. No. 64],,,"Active parent compound concentrations versus dose ([2]; oral, portal vein): increase in a linear fashion with dose; Absorption and hydrolysis of the orally administered parent compound ([2]; oral, portal vein plasma): well absorbed but is extensively hydrolyzed to the inactive metabolite"
